Molecular target: T1, BRM (Homo sapiens, UniProt P51531)
T1 construct: In-Cell Western Screen of BRM Degradation in SW1573 Cells; endogenous in cells; host or cells: SW1573
Assay: In-cell Western screen of BRM degradation in SW1573 cells (Dmax and DC50)
Assay type: cell-based
Settings: for Dmax: SW1573, % degraded, when tested at the top concentration of between 0.3 and 10 μM, read-out: BRM Dmax (%); for DC50: degradation of BRM, read-out: BRM DC50
In short: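 SW1573 cells were treated with compound overnight (18-20 h; final DMSO 0.1%), then fixed in 4% PFA, permeabilized with Triton X-100 and blocked. BRM was detected by in-cell Western using 800 nm anti-rabbit and 680 nm anti-mouse secondaries, and Dmax and DC50 were derived from the LI-COR Odyssey signal.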

T1 sequence (P51531 whole entry): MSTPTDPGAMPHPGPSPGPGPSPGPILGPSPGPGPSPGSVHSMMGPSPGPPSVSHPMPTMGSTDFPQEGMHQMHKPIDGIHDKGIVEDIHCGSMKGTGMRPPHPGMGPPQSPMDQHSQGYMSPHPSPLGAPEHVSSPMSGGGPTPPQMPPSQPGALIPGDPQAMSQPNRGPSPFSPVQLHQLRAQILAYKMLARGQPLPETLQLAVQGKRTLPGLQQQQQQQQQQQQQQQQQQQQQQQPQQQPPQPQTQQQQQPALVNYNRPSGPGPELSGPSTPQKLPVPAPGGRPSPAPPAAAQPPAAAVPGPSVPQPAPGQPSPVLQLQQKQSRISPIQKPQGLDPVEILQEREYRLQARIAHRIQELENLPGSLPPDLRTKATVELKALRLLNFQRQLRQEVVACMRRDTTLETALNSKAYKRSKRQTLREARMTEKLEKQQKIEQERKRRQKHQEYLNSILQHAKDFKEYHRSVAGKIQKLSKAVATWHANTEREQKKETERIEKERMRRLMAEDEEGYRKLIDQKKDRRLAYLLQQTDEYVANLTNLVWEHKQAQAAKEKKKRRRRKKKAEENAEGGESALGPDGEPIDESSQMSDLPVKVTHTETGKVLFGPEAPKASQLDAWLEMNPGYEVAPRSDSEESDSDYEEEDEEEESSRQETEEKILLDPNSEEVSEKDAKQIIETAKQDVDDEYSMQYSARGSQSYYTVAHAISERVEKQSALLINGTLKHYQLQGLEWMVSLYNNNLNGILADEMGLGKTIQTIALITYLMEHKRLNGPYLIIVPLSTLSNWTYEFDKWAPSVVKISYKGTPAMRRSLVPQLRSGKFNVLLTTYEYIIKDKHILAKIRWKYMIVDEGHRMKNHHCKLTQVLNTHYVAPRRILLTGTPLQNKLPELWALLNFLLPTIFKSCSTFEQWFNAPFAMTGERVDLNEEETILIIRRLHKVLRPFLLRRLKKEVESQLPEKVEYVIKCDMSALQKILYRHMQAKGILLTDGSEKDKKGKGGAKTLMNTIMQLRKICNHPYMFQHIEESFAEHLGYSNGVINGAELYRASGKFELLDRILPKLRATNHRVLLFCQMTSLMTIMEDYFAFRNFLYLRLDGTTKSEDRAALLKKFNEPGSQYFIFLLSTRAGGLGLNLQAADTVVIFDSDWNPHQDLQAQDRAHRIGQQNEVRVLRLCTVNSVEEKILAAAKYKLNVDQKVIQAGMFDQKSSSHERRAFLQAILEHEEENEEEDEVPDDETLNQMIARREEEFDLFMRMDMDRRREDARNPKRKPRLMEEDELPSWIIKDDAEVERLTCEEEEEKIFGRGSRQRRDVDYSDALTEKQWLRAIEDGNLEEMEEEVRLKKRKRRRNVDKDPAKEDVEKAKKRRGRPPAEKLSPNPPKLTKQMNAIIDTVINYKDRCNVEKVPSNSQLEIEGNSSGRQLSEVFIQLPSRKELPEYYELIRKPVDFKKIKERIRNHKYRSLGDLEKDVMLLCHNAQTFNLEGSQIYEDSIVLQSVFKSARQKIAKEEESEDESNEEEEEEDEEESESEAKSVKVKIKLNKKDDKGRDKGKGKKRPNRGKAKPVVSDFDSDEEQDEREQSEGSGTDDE

| Structure (SMILES) | Dmax [%] | DC50 [nM] |
| --- | --- | --- |
| Cc1ncsc1-c1ccc([C@H](C)NC(=O)[C@@H]2C[C@@H](O)CN2C(=O)[C@@H](c2cc(OCCN3CCN(CCO[C@H]4C[C@H](Oc5cc(N6C7CCC6CN(c6cc(-c8ccccc8O)nnc6N)C7)ccn5)C4)CC3)no2)C(C)C)cc1 [compound 408, (2S,4R)-1-((2R)-2-(3-(2-(4-(2-((1r,3r)-3-((4-(3-(3-amino-6-(2-hydroxyphenyl)pyridazin-4-yl)-3,8-diazabicyclo[3.2.1]octan-8-yl)pyridin-2-yl)oxy)cyclobutoxy)ethyl)piperazin-1-yl)ethoxy)isoxazol-5-yl)-3-methylbutanoyl)-4-hydroxy-N-((S)-1-(4-(4-methylthiazol-5-yl)phenyl)ethyl)pyrrolidine-2-carboxamide] | > 75 | < 2.5 |
| CC(C)[C@H](C(=O)N1C[C@H](O)C[C@H]1C(=O)N[C@@H](C)c1ccc(-c2c(F)cnn2C)cc1)c1cc(OCCN2CCN(CCOc3cc(N4C5CCC4CN(c4cc(-c6ccccc6O)nnc4N)C5)ccn3)CC2)no1 [compound 409, (2S,4R)-1-((2S)-2-(3-(2-(4-(2-((4-(3-(3-amino-6-(2-hydroxyphenyl)pyridazin-4-yl)-3,8-diazabicyclo[3.2.1]octan-8-yl)pyridin-2-yl)oxy)ethyl)piperazin-1-yl)ethoxy)isoxazol-5-yl)-3-methylbutanoyl)-N-((S)-1-(4-(4-fluoro-1-methyl-1H-pyrazol-5-yl)phenyl)ethyl)-4-hydroxypyrrolidine-2-carboxamide] | – | > 30 |
| CC(C)[C@@H](C(=O)N1C[C@H](O)C[C@H]1C(=O)N[C@@H](C)c1ccc(-c2c(F)cnn2C)cc1)c1cc(OCCN2CCN(CCOc3cc(N4C5CCC4CN(c4cc(-c6ccccc6O)nnc4N)C5)ccn3)CC2)no1 [compound 410, (2S,4R)-1-((2R)-2-(3-(2-(4-(2-((4-(3-(3-amino-6-(2-hydroxyphenyl)pyridazin-4-yl)-3,8-diazabicyclo[3.2.1]octan-8-yl)pyridin-2-yl)oxy)ethyl)piperazin-1-yl)ethoxy)isoxazol-5-yl)-3-methylbutanoyl)-N-((S)-1-(4-(4-fluoro-1-methyl-1H-pyrazol-5-yl)phenyl)ethyl)-4-hydroxypyrrolidine-2-carboxamide] | > 75 | < 2.5 |
| Cc1ncsc1-c1ccc([C@H](C)NC(=O)[C@@H]2C[C@@H](O)CN2C(=O)C(c2cc(O[C@H]3C[C@H](N4CCC(O[C@H]5C[C@H](Oc6cc(N7C8CCC7CN(c7cc(-c9ccccc9O)nnc7N)C8)ccn6)C5)CC4)C3)no2)C(C)C)cc1 (stereo partly drawn) [compound 411, (2S,4R)-1-(2-(3-((1R,3S)-3-(4-((1r,3R)-3-((4-(3-(3-amino-6-(2-hydroxyphenyl)pyridazin-4-yl)-3,8-diazabicyclo[3.2.1]octan-8-yl)pyridin-2-yl)oxy)cyclobutoxy)piperidin-1-yl)cyclobutoxy)isoxazol-5-yl)-3-methylbutanoyl)-4-hydroxy-N-((S)-1-(4-(4-methylthiazol-5-yl)phenyl)ethyl)pyrrolidine-2-carboxamide] | > 75 | < 2.5 |
| Cc1nccn1-c1ccc([C@H](C)NC(=O)[C@@H]2C[C@@H](O)CN2C(=O)[C@H](c2cc(N3CCN(CCN4CCC(O[C@H]5C[C@H](Oc6cc(N7C8CCC7CN(c7cc(-c9ccccc9O)nnc7N)C8)ccn6)C5)CC4)CC3)no2)C(C)C)cc1 [compound 412, (2S,4R)-1-((2S)-2-(3-(4-(2-(4-((1r,3r)-3-((4-(3-(3-amino-6-(2-hydroxyphenyl)pyridazin-4-yl)-3,8-diazabicyclo[3.2.1]octan-8-yl)pyridin-2-yl)oxy)cyclobutoxy)piperidin-1-yl)ethyl)piperazin-1-yl)isoxazol-5-yl)-3-methylbutanoyl)-4-hydroxy-N-((S)-1-(4-(2-methyl-1 H-imidazol-1-yl)phenyl)ethyl)pyrrolidine-2-carboxamide] | – | > 30 |
| Cc1nccn1-c1ccc([C@H](C)NC(=O)[C@@H]2C[C@@H](O)CN2C(=O)[C@@H](c2cc(N3CCN(CCN4CCC(O[C@H]5C[C@H](Oc6cc(N7C8CCC7CN(c7cc(-c9ccccc9O)nnc7N)C8)ccn6)C5)CC4)CC3)no2)C(C)C)cc1 [compound 413, (2S,4R)-1-((2R)-2-(3-(4-(2-(4-((1r,3r)-3-((4-(3-(3-amino-6-(2-hydroxyphenyl)pyridazin-4-yl)-3,8-diazabicyclo[3.2.1]octan-8-yl)pyridin-2-yl)oxy)cyclobutoxy)piperidin-1-yl)ethyl)piperazin-1-yl)isoxazol-5-yl)-3-methylbutanoyl)-4-hydroxy-N-((S)-1-(4-(2-methyl-1H-imidazol-1-yl)phenyl)ethyl)pyrrolidine-2-carboxamide] | > 75 | < 2.5 |
| Cc1ncsc1-c1ccc([C@H](C)NC(=O)[C@@H]2C[C@@H](O)CN2C(=O)[C@@H](c2cc(OCCN3CCC(O[C@H]4C[C@H](C#C[C@@H](C)n5cc(-c6cc(-c7ccccc7O)nnc6N)cn5)C4)CC3)no2)C(C)C)cc1 [compound 414, (2S,4R)-1-((R)-2-(3-(2-(4-((1R,3R)-3-((R)-3-(4-(3-amino-6-(2-hydroxyphenyl)pyridazin-4-yl)-1 H-pyrazol-1-yl)but-1-yn-1-yl)cyclobutoxy)piperidin-1-yl)ethoxy)isoxazol-5-yl)-3-methylbutanoyl)-4-hydroxy-N-((S)-1-(4-(4-methylthiazol-5-yl)phenyl)ethyl)pyrrolidine-2-carboxamide] | > 75 | < 2.5 |
| Cc1ncsc1-c1ccc([C@H](C)NC(=O)[C@@H]2C[C@@H](O)CN2C(=O)[C@@H](c2cc(OCCN3CCC(O[C@H]4C[C@H](C#C[C@H](C)n5cc(-c6cc(-c7ccccc7O)nnc6N)cn5)C4)CC3)no2)C(C)C)cc1 [compound 415, (2S,4R)-1-((R)-2-(3-(2-(4-((1S,3R)-3-((S)-3-(4-(3-amino-6-(2-hydroxyphenyl)pyridazin-4-yl)-1H-pyrazol-1-yl)but-1-yn-1-yl)cyclobutoxy)piperidin-1-yl)ethoxy)isoxazol-5-yl)-3-methylbutanoyl)-4-hydroxy-N-((S)-1-(4-(4-methylthiazol-5-yl)phenyl)ethyl)pyrrolidine-2-carboxamide] | > 75 | < 2.5 |
| CC(C)[C@@H](C(=O)N1C[C@H](O)C[C@H]1C(=O)N[C@@H](C)c1ccc(-c2scnc2N)cc1)c1cc(OCCN2CCC(O[C@H]3C[C@H](Oc4cc(N5C6CCC5CN(c5cc(-c7ccccc7O)nnc5N)C6)ccn4)C3)CC2)no1 [compound 416, (2S,4R)-1-((2R)-2-(3-(2-(4-((1r,3R)-3-((4-(3-(3-amino-6-(2-hydroxyphenyl)pyridazin-4-yl)-3,8-diazabicyclo[3.2.1]octan-8-yl)pyridin-2-yl)oxy)cyclobutoxy)piperidin-1-yl)ethoxy)isoxazol-5-yl)-3-methylbutanoyl)-N-((S)-1-(4-(4-aminothiazol-5-yl)phenyl)ethyl)-4-hydroxypyrrolidine-2-carboxamide] | > 75 | < 2.5 |
| Cc1ncsc1-c1ccc([C@H](C)NC(=O)[C@@H]2C[C@@H](O)CN2C(=O)[C@@H](c2cc(OCCC3CCN(C[C@H]4C[C@H](Oc5cc(N6C7CCC6CN(c6cc(-c8ccccc8O)nnc6N)C7)ccn5)C4)CC3)no2)C(C)C)cc1 [compound 417, (2S,4R)-1-((2R)-2-(3-(2-(1-(((1r,3R)-3-((4-(3-(3-amino-6-(2-hydroxyphenyl)pyridazin-4-yl)-3,8-diazabicyclo[3.2.1]octan-8-yl)pyridin-2-yl)oxy)cyclobutyl)methyl)piperidin-4-yl)ethoxy)isoxazol-5-yl)-3-methylbutanoyl)-4-hydroxy-N-((S)-1-(4-(4-methylthiazol-5-yl)phenyl)ethyl)pyrrolidine-2-carboxamide] | > 75 | < 2.5 |
| CC(C)[C@H](C(=O)N1C[C@H](O)C[C@H]1C(=O)NCc1ccc(C2(F)CC2)cc1)c1cc(OCCN2CCC(O[C@H]3C[C@H](Oc4cc(N5C6CCC5CN(c5cc(-c7ccccc7O)nnc5N)C6)ccn4)C3)CC2)no1 [compound 418, (2S,4R)-1-((2S)-2-(3-(2-(4-((1r,3S)-3-((4-(3-(3-amino-6-(2-hydroxyphenyl)pyridazin-4-yl)-3,8-diazabicyclo[3.2.1]octan-8-yl)pyridin-2-yl)oxy)cyclobutoxy)piperidin-1-yl)ethoxy)isoxazol-5-yl)-3-methylbutanoyl)-N-(4-(1-fluorocyclopropyl)benzyl)-4-hydroxypyrrolidine-2-carboxamide] | – | > 30 |
| CC(C)[C@@H](C(=O)N1C[C@H](O)C[C@H]1C(=O)NCc1ccc(C2(F)CC2)cc1)c1cc(OCCN2CCC(O[C@H]3C[C@H](Oc4cc(N5C6CCC5CN(c5cc(-c7ccccc7O)nnc5N)C6)ccn4)C3)CC2)no1 [compound 419, (2S,4R)-1-((2R)-2-(3-(2-(4-((1r,3R)-3-((4-(3-(3-amino-6-(2-hydroxyphenyl)pyridazin-4-yl)-3,8-diazabicyclo[3.2.1]octan-8-yl)pyridin-2-yl)oxy)cyclobutoxy)piperidin-1-yl)ethoxy)isoxazol-5-yl)-3-methylbutanoyl)-N-(4-(1-fluorocyclopropyl)benzyl)-4-hydroxypyrrolidine-2-carboxamide] | > 75 | 2.5 to 10 |
| Cc1ncsc1-c1ccc([C@@H](NC(=O)[C@@H]2C[C@@H](O)CN2C(=O)[C@@H](c2cc(OCCN3CCC(O[C@H]4C[C@H](Oc5cc(N6C7CCC6CN(c6cc(-c8ccccc8O)nnc6N)C7)ccn5)C4)CC3)no2)C(C)C)C(=O)N(C)C2CCC2)cc1 [compound 420, (2S,4R)-1-((2R)-2-(3-(2-(4-((1r,3R)-3-((4-(3-(3-amino-6-(2-hydroxyphenyl)pyridazin-4-yl)-3,8-diazabicyclo[3.2.1]octan-8-yl)pyridin-2-yl)oxy)cyclobutoxy)piperidin-1-yl)ethoxy)isoxazol-5-yl)-3-methylbutanoyl)-N-((R)-2-(cyclobutyl(methyl)amino)-1-(4-(4-methylthiazol-5-yl)phenyl)-2-oxoethyl)-4-hydroxypyrrolidine-2-carboxamide] | > 75 | < 2.5 |

From patent US12539292B2, “BRM targeting compounds and associated methods of use” (Arvinas Operations, Inc., priority 2018, dated 2026)
